Reference: paper PMC8710044 (Biochemical pharmacology, 2021)

Key:
CYP2C19 = CYP2C19 (Homo sapiens, UniProt P33261); test: Relative CYP contribution to hepatic bioactivation and detoxification, CYP2C19; format: in vitro ADME; conditions: for Bioactivation Percent: CYP2C19 contribution to total CLbioact of the NSAID; for Detoxification Percent: CYP2C19 contribution to total CLdetox of the NSAID
CYP2C9 = CYP2C9 (Homo sapiens, UniProt P11712); test: Relative CYP contribution to hepatic bioactivation and detoxification, CYP2C9; format: in vitro ADME; conditions: for Bioactivation Percent: CYP2C9 contribution to total CLbioact of the NSAID; for Detoxification Percent: CYP2C9 contribution to total CLdetox of the NSAID
CYP2C8 = biological target: T1, CYP2C8 (Homo sapiens, UniProt P10632); test: Relative CYP contribution to hepatic bioactivation and detoxification, CYP2C8; format: in vitro ADME; conditions: for Bioactivation Percent: CYP2C8 contribution to total CLbioact of the NSAID; for Detoxification Percent: CYP2C8 contribution to total CLdetox of the NSAID
T1 sequence (P10632 1-490): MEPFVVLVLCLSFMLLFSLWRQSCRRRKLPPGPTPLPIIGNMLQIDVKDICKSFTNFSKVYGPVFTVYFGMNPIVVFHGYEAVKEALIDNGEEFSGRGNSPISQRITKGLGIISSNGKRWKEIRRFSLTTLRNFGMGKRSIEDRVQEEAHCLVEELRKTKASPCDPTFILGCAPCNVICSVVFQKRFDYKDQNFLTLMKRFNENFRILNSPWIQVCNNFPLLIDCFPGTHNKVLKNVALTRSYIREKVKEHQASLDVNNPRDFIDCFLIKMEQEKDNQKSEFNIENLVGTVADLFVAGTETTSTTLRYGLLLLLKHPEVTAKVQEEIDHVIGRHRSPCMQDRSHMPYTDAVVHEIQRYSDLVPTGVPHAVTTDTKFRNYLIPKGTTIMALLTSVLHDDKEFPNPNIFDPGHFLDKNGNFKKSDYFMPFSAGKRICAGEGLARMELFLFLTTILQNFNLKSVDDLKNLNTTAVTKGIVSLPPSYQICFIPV

CYP3A4 = CYP3A4 (Homo sapiens, UniProt P08684); test: Relative CYP contribution to hepatic bioactivation and detoxification, CYP3A4; format: in vitro ADME; conditions: for Bioactivation Percent: CYP3A4 contribution to total CLbioact of the NSAID; for Detoxification Percent: CYP3A4 contribution to total CLdetox of the NSAID
[1] = substrate: O=C(O)COC(=O)Cc1ccccc1Nc1c(Cl)cccc1Cl; test: Steady-state bioactivation kinetics; format: in vitro ADME, human; conditions: other: CYP2C8, 95% CI in parentheses, pH 7.4
[2] = substrate: Cc1cccc(Nc2ccccc2C(=O)O)c1C; test: Steady-state bioactivation kinetics; format: in vitro ADME, human; conditions: other: CYP2C8, path 1, 2, 95% CI in parentheses, pH 7.4
[3] = substrate: O=C(O)COC(=O)Cc1ccccc1Nc1c(Cl)cccc1Cl; test: Steady-state kinetics of overall NSAID metabolism; format: in vitro ADME, human; conditions: other: overall metabolism (depletion) by CYP2C8; 95% CI in parentheses; pH 7.4
[4] = substrate: Cc1cccc(Nc2ccccc2C(=O)O)c1C; test: Steady-state kinetics of overall NSAID metabolism; format: in vitro ADME, human; conditions: other: overall metabolism (depletion) by CYP2C8; 95% CI in parentheses; pH 7.4
[5] = substrate: O=C(O)COC(=O)Cc1ccccc1Nc1c(Cl)cccc1Cl; test: cells, lysate or membranes named; conditions: other: CYP2C9, 95% CI in parentheses, pH 7.4
[6] = substrate: Cc1ccc(Nc2c(F)cccc2Cl)c(CC(=O)O)c1; test: cells, lysate or membranes named; conditions: other: CYP2C9; adduct Unk; 95% CI in parentheses; pH 7.4
[7] = substrate: Cc1cccc(Nc2ccccc2C(=O)O)c1C; test: cells, lysate or membranes named; conditions: other: CYP2C9, path 1, 2, 95% CI in parentheses, pH 7.4
[8] = substrate: Cc1c(Cl)cccc1Nc1ccccc1C(=O)O; test: cells, lysate or membranes named; conditions: other: CYP2C9, path 1, 2, 95% CI in parentheses, pH 7.4
[9] = substrate: Cc1ccc(Cl)c(Nc2ccccc2C(=O)O)c1Cl; test: cells, lysate or membranes named; conditions: other: CYP2C9; metabolite M9, path 4; 95% CI in parentheses; pH 7.4

CYP2C19, sequence (P33261 whole entry): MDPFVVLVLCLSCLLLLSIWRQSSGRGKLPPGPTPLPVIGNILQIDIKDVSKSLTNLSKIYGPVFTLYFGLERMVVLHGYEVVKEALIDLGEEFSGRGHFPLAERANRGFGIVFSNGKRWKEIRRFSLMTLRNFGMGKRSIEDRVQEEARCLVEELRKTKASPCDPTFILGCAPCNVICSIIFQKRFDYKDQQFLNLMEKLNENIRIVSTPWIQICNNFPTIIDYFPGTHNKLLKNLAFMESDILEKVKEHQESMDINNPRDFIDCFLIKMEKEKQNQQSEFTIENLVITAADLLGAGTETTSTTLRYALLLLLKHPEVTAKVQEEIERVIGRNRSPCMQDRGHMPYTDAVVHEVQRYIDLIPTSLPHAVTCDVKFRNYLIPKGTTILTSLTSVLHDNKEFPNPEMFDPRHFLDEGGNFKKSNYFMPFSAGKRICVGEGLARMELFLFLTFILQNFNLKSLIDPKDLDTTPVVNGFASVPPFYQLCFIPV
CYP3A4, sequence (P08684 whole entry): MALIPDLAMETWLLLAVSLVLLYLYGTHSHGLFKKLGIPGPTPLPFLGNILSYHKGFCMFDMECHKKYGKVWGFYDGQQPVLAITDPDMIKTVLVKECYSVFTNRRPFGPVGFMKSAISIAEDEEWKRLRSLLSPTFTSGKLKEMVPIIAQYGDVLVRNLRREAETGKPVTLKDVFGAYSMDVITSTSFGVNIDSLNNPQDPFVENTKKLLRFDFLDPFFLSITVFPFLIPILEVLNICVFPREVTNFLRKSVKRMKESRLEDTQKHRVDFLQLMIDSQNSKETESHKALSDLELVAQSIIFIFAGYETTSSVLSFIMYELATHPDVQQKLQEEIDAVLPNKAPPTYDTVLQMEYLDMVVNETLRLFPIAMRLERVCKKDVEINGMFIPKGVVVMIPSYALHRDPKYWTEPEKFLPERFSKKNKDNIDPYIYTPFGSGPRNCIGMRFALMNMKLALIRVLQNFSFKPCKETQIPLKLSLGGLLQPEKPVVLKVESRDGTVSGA

In the case of `O=C(O)COC(=O)Cc1ccccc1Nc1c(Cl)cccc1Cl` [ACE, aceclofenac], the “Bioactivation Percent” value (CYP2C19) is reported as 2.0%, the “Detoxification Percent” value (CYP2C19) is reported as 1.6% and the “Bioactivation Percent” value (CYP2C9) is reported as 94.3%. For the same molecule, the “Detoxification Percent” value (CYP2C9) was 30.7%, the “Bioactivation Percent” value (CYP2C8) was 2.5% and the “Detoxification Percent” value (CYP2C8) was 7.3%. For the same molecule, the “Bioactivation Percent” value (CYP3A4) was 1.2% and the “Detoxification Percent” value (CYP3A4) was 60.4%.

For `O=C(O)c1ccccc1Nc1cccc(C(F)(F)F)c1` [FLU, flufenamic acid], the “Bioactivation Percent” value (CYP2C19) was 1.7%, the “Detoxification Percent” value (CYP2C19) was 3.4% and the “Bioactivation Percent” value (CYP2C9) was 42.3%. The “Detoxification Percent” value (CYP2C9) was 27.6%, the “Bioactivation Percent” value (CYP3A4) was 55.9% and the “Detoxification Percent” value (CYP3A4) was 69.0%.

For `Cc1ccc(Nc2c(F)cccc2Cl)c(CC(=O)O)c1` [LUM, lumiracoxib], the “Bioactivation Percent” value (CYP2C19) was 0.5%, the “Detoxification Percent” value (CYP2C19) was 8.6% and the “Bioactivation Percent” value (CYP2C9) was 95.8%. The “Detoxification Percent” value (CYP2C9) was 23.4%, the “Bioactivation Percent” value (CYP3A4) was 3.7% and the “Detoxification Percent” value (CYP3A4) was 68.0%.

With `Cc1cccc(Nc2ccccc2C(=O)O)c1C` [MEF, mefenamic acid] the “Bioactivation Percent” value (CYP2C19) was 1.2%, the “Detoxification Percent” value (CYP2C19) was 2.1% and the “Bioactivation Percent” value (CYP2C9) was 91.4%. For the same molecule, the “Detoxification Percent” value (CYP2C9) was 36.9%, the “Bioactivation Percent” value (CYP2C8) was 1.4% and the “Detoxification Percent” value (CYP2C8) was 4.6%. For the same molecule, the “Bioactivation Percent” value (CYP3A4) was 6.0% and the “Detoxification Percent” value (CYP3A4) was 56.4%.

In the case of `Cc1ccc(Cl)c(Nc2ccccc2C(=O)O)c1Cl` [MEC, meclofenamic acid], the “Bioactivation Percent” value (CYP2C19) is reported as 19.6%, the “Detoxification Percent” value (CYP2C19) is reported as 1.9% and the “Bioactivation Percent” value (CYP2C9) is reported as 55.7%. The “Detoxification Percent” value (CYP2C9) was 36.5%, the “Bioactivation Percent” value (CYP3A4) was 24.7% and the “Detoxification Percent” value (CYP3A4) was 61.6%.

For `Cc1c(Cl)cccc1Nc1ccccc1C(=O)O` [TOL, tolfenamic acid], the “Bioactivation Percent” value (CYP2C19) was 2.0%, the “Detoxification Percent” value (CYP2C19) was 3.6% and the “Bioactivation Percent” value (CYP2C9) was 72.8%. For the same molecule, the “Detoxification Percent” value (CYP2C9) was 35.5%, the “Bioactivation Percent” value (CYP3A4) was 25.2% and the “Detoxification Percent” value (CYP3A4) was 60.9%.

B1: CYP2C8 (Homo sapiens) (protein)
chain: MEPFVVLVLCLSFMLLFSLWRQSCRRRKLPPGPTPLPIIGNMLQIDVKDICKSFTNFSKVYGPVFTVYFGMNPIVVFHGYEAVKEALIDNGEEFSGRGNSPISQRITKGLGIISSNGKRWKEIRRFSLTTLRNFGMGKRSIEDRVQEEAHCLVEELRKTKASPCDPTFILGCAPCNVICSVVFQKRFDYKDQNFLTLMKRFNENFRILNSPWIQVCNNFPLLIDCFPGTHNKVLKNVALTRSYIREKVKEHQASLDVNNPRDFIDCFLIKMEQEKDNQKSEFNIENLVGTVADLFVAGTETTSTTLRYGLLLLLKHPEVTAKVQEEIDHVIGRHRSPCMQDRSHMPYTDAVVHEIQRYSDLVPTGVPHAVTTDTKFRNYLIPKGTTIMALLTSVLHDDKEFPNPNIFDPGHFLDKNGNFKKSDYFMPFSAGKRICAGEGLARMELFLFLTTILQNFNLKSVDDLKNLNTTAVTKGIVSLPPSYQICFIPV
For B1, the Km ([1]; metabolite M2/M4, path 1, 2) was 6.3 µM, the kcat ([1]; metabolite M2/M4, path 1, 2) was 1.4 (1.3–1.5) pmol/min/nmol protein and the Km ([1]; metabolite M6, path 3) was 9.4 µM. The kcat ([1]; metabolite M6, path 3) was 4.0 (3.9–4.1) pmol/min/nmol protein, the Km ([1]; metabolite M9, path 4) was 6.7 µM and the kcat ([1]; metabolite M9, path 4) was 1.7 (1.6–1.8) pmol/min/nmol protein. The Km ([2]; metabolite M2/M4a) was 51.9 µM, the kcat ([2]; metabolite M2/M4a) was 5.6 (5.5–5.8) pmol/min/nmol protein and the Km ([2]; metabolite M2/M4b) was 75.6 µM. The kcat ([2]; metabolite M2/M4b) was 5.4 (5.2–5.5) pmol/min/nmol protein, the Km [3] was 110 (96–130) μM and the kcat [3] was 1740 (1640–1850) pmol/min/nmol protein. For the same molecule, the Km [4] was 160 (140–190) μM and the kcat [4] was 2390 (2230–2560) pmol/min/nmol protein.

B2: CYP2C9 (Homo sapiens) (protein)
chain: MDSLVVLVLCLSCLLLLSLWRQSSGRGKLPPGPTPLPVIGNILQIGIKDISKSLTNLSKVYGPVFTLYFGLKPIVVLHGYEAVKEALIDLGEEFSGRGIFPLAERANRGFGIVFSNGKKWKEIRRFSLMTLRNFGMGKRSIEDRVQEEARCLVEELRKTKASPCDPTFILGCAPCNVICSIIFHKRFDYKDQQFLNLMEKLNENIKILSSPWIQICNNFSPIIDYFPGTHNKLLKNVAFMKSYILEKVKEHQESMDMNNPQDFIDCFLMKMEKEKHNQPSEFTIESLENTAVDLFGAGTETTSTTLRYALLLLLKHPEVTAKVQEEIERVIGRNRSPCMQDRSHMPYTDAVVHEVQRYIDLLPTSLPHAVTCDIKFRNYLIPKGTTILISLTSVLHDNKEFPNPEMFDPHHFLDEGGNFKKSKYFMPFSAGKRICVGEALAGMELFLFLTSILQNFNLKSLVDPKNLDTTPVVNGFASVPPFYQLCFIPV
With B2 the Km ([5]; adduct Unk) was 7.9 (5.8–10.7) μM, the kcat ([5]; adduct Unk) was 10.2 (9.7–10.9) pmol/min/nmol protein and the Km ([5]; metabolite M9, path 4) was 23.8 (19.4–28.9) μM. For the same molecule, the kcat ([5]; metabolite M9, path 4) was 68.5 (65.0–72.2) pmol/min/nmol protein, the Km [6] was 27.0 (22.4–32.3) μM and the kcat [6] was 23.5 (22.5–24.5) pmol/min/nmol protein. For the same molecule, the Km ([7]; metabolite M2/M4a) was 17.5 (13.4–22.7) μM, the kcat ([7]; metabolite M2/M4a) was 25.6 (24.2–27.0) pmol/min/nmol protein and the Km ([7]; metabolite M2/M4b) was 12.9 (10.1–16.5) μM. The kcat ([7]; metabolite M2/M4b) was 35.7 (34.0–37.4) pmol/min/nmol protein, the Km ([8]; metabolite M2/M4a) was 6.5 (5.2–8.0) μM and the kcat ([8]; metabolite M2/M4a) was 15.2 (14.6–15.9) pmol/min/nmol protein. The Km ([8]; metabolite M2/M4b) was 6.9 (5.8–8.8) μM, the kcat ([8]; metabolite M2/M4b) was 16.1 (15.6–16.7) pmol/min/nmol protein and the Km [9] was 5.5 (4.3–7.1) μM. The kcat [9] was 5.2 (5.0–5.4) pmol/min/nmol protein.
